Measured values published in patent publication US12186304B2, “Method for treating cancer by combination of IAP inhibitor and modulator of immune checkpoint molecule” (ASCENTAGE PHARMA (SUZHOU) CO., LTD., priority 2018, dated 2025).

What was measured:
[1] = test system: metastatic pancreatic cancer; test: Phase I study: anti-tumor activity in pancreatic cancer; format: in vivo, human
[2] = test system: Murine MC38 colon cancer cells; test: Subcutaneous xenograft model of murine MC38 colon cancer; format: in vivo, female C57BL/6 mice; conditions: MC38 s.c.
Method: • (1) APG-1387: provided by Jiangsu Ascentage Pharmaceutical Development Co., Ltd. The batch number is R12JA076140-A2 and PAPG-1387-DP-201305A. Preserved at 4° C., away from the light and sealed. APG-1387 was administered intravenously (i.v.) or intraperitoneally (i.p.) or at a dosage of 10 mL/kg. APG-1387 was dissolved in 5% castor oil/10% PEG400/85% normal saline. • (2) Anti-PD-1 antibody: purchased from BioXcell. The article number is BE0146 and BE0273. Preserved at 4° C. and sealed. The anti-PD-1 antibody was administered intraperitoneally at a concentration of 100 μg per mice or 200 μg per mice. • (3) Isotype control (anti-IgG): purchased from BioXcell, the product number is BE0089. […]
The mice were injected subcutaneously with 0.5-10×10^6 cells or in the ovary with 6×10^6 cells in situ to build the tumor xenograft model. […] For the orthotopic model, tumor growth was measured by examining in vivo fluorescence images 10 days after inoculation. […] Body weight and tumor size were measured twice per week during the experiment. […]
Using the fluorescence imaging technique, the strength of the fluorescent signal can represent the growth and metastasis of tumors in vivo.
The tumor growth curve and the animal body weight curve were plotted, with time on the X-axis and tumor volume and animal body weight on the Y-axis. […] All data were analyzed using SPSS 18.0 (*P<0.05, **P<0.01, ***P<0.001, ****P<0.0001).

[3] = Phase I study (NCT03386526): safety and tolerability
Method: The Phase I dose escalation study included two parts.
Pembrolizumab was administered 200 mg IV on day 1 of a 21-day-cycle, until disease progression or untolerated toxicity.
The inclusion criteria for the Phase I study are: Age≥18 years; ECOG PS: 0-1;
Adequate hematologic, renal and liver functions; Advanced or metastatic solid tumor patients must be refractory to or intolerant of existing therapy(ies) known to provide clinical benefit for their condition.

CN[C@@H](C)C(=O)N[C@H]1CN(S(=O)(=O)c2cccc(S(=O)(=O)N3CC[C@H]4CC[C@@H](C(=O)NC(c5ccccc5)c5ccccc5)N4C(=O)[C@@H](NC(=O)[C@H](C)NC)C3)c2)CC[C@H]2CC[C@@H](C(=O)NC(c3ccccc3)c3ccccc3)N2C1=O [APG-1387]
one: G3 above TRAEs: G3 blood bilirubin increased ([3]; 60 mg monotherapy) | G3 above TRAEs: lipase increased ([3]; 60 mg monotherapy)
(7.7%): TRAEs (all Grades): Aspartate aminotransferase increased, % of patients ([3]; APG-1387 45 mg) | TRAEs (all Grades): Bell's palsy, % of patients ([3]; APG-1387 45 mg) | TRAEs (all Grades): Dehydration, % of patients ([3]; APG-1387 45 mg) | TRAEs (all Grades): Dyspepsia, % of patients ([3]; APG-1387 45 mg)
4: Best response: PD ([1]; pancreatic cancer, patients) | Best response: SD ([1]; pancreatic cancer, patients)
1: # of pts discontinued treatment: Lack of efficacy ([3]; APG-1387 20 mg) | TRAEs (all Grades): Phlebitis, patients ([3]; APG-1387 20 mg) | TRAEs (all Grades): Pruritus, patients ([3]; APG-1387 20 mg) | TRAEs (all Grades): Rash maculo-papular, patients ([3]; APG-1387 20 mg) | TRAEs (all Grades): Diarrhoea, patients ([3]; APG-1387 30 mg) | TRAEs (all Grades): Headache, patients ([3]; APG-1387 30 mg) | TRAEs (all Grades): Nausea, patients ([3]; APG-1387 30 mg) | # of pts discontinued treatment: Adverse Event ([3]; APG-1387 45 mg) | # of pts discontinued treatment: Clinical progression ([3]; APG-1387 45 mg) | # of pts discontinued treatment: Lack of efficacy ([3]; APG-1387 45 mg) | TRAEs (all Grades): Aspartate aminotransferase increased, patients ([3]; APG-1387 45 mg) | TRAEs (all Grades): Bell's palsy, patients ([3]; APG-1387 45 mg) | TRAEs (all Grades): Dehydration, patients ([3]; APG-1387 45 mg) | TRAEs (all Grades): Dyspepsia, patients ([3]; APG-1387 45 mg)
4/10: DCR (disease control rate, SD above) ([1]; pancreatic cancer)
(33.3%): TRAEs (all Grades): Phlebitis, % of patients ([3]; APG-1387 20 mg) | TRAEs (all Grades): Pruritus, % of patients ([3]; APG-1387 20 mg) | TRAEs (all Grades): Rash maculo-papular, % of patients ([3]; APG-1387 20 mg) | TRAEs (all Grades): Diarrhoea, % of patients ([3]; APG-1387 30 mg) | TRAEs (all Grades): Headache, % of patients ([3]; APG-1387 30 mg) | TRAEs (all Grades): Nausea, % of patients ([3]; APG-1387 30 mg)
33.0 days: median survival time [2]
> 9 cycles: treatment duration of one mPC patient with confirmed SD ([1]; 45 mg)
69.6%: T/C value on the 22nd day after administration ([2]; APG-1387 0.2 mg/kg i.v., anti-PD-1 100 μg/mouse i.p., q3d x 2 doses)
3: # of pts discontinued treatment: Disease progression ([3]; APG-1387 30 mg) | TRAEs (all Grades): Fatigue, patients ([3]; APG-1387 45 mg)
+6%: change of one mPC patient with confirmed SD ([1]; 45 mg)
8: # of pts discontinued treatment: Disease progression ([3]; APG-1387 45 mg)
(15.4%): TRAEs (all Grades): Decreased appetite, % of patients ([3]; APG-1387 45 mg)
0: ORR (objective response rate, CR + PR) ([1]; pancreatic cancer) | Best response: CR ([1]; pancreatic cancer, patients) | Best response: PR ([1]; pancreatic cancer, patients) | # of pts discontinued treatment: Adverse Event ([3]; APG-1387 20 mg) | # of pts discontinued treatment: Clinical progression ([3]; APG-1387 20 mg) | TRAEs (all Grades): Aspartate aminotransferase increased, patients ([3]; APG-1387 20 mg) | TRAEs (all Grades): Bell's palsy, patients ([3]; APG-1387 20 mg) | TRAEs (all Grades): Blood bilirubin increased, patients ([3]; APG-1387 20 mg) | TRAEs (all Grades): Decreased appetite, patients ([3]; APG-1387 20 mg) | TRAEs (all Grades): Dehydration, patients ([3]; APG-1387 20 mg) | TRAEs (all Grades): Diarrhoea, patients ([3]; APG-1387 20 mg) | TRAEs (all Grades): Dyspepsia, patients ([3]; APG-1387 20 mg) | TRAEs (all Grades): Eructation, patients ([3]; APG-1387 20 mg) | TRAEs (all Grades): Fatigue, patients ([3]; APG-1387 20 mg) | TRAEs (all Grades): Headache, patients ([3]; APG-1387 20 mg) | TRAEs (all Grades): Lipase increased, patients ([3]; APG-1387 20 mg) | TRAEs (all Grades): Myalgia, patients ([3]; APG-1387 20 mg) | TRAEs (all Grades): Nausea, patients ([3]; APG-1387 20 mg) | TRAEs (all Grades): Peripheral sensory neuropathy, patients ([3]; APG-1387 20 mg) | TRAEs (all Grades): Pneumonitis, patients ([3]; APG-1387 20 mg) | TRAEs (all Grades): Tumor pain, patients ([3]; APG-1387 20 mg) | # of pts discontinued treatment: Adverse Event ([3]; APG-1387 30 mg) | # of pts discontinued treatment: Clinical progression ([3]; APG-1387 30 mg) | # of pts discontinued treatment: Lack of efficacy ([3]; APG-1387 30 mg) | TRAEs (all Grades): Aspartate aminotransferase increased, patients ([3]; APG-1387 30 mg) | TRAEs (all Grades): Bell's palsy, patients ([3]; APG-1387 30 mg) | TRAEs (all Grades): Blood bilirubin increased, patients ([3]; APG-1387 30 mg) | TRAEs (all Grades): Decreased appetite, patients ([3]; APG-1387 30 mg) | TRAEs (all Grades): Dehydration, patients ([3]; APG-1387 30 mg) | TRAEs (all Grades): Dyspepsia, patients ([3]; APG-1387 30 mg) | TRAEs (all Grades): Eructation, patients ([3]; APG-1387 30 mg) | TRAEs (all Grades): Fatigue, patients ([3]; APG-1387 30 mg) | TRAEs (all Grades): Lipase increased, patients ([3]; APG-1387 30 mg) | TRAEs (all Grades): Myalgia, patients ([3]; APG-1387 30 mg) | TRAEs (all Grades): Peripheral sensory neuropathy, patients ([3]; APG-1387 30 mg) | TRAEs (all Grades): Phlebitis, patients ([3]; APG-1387 30 mg) | TRAEs (all Grades): Pneumonitis, patients ([3]; APG-1387 30 mg) | TRAEs (all Grades): Pruritus, patients ([3]; APG-1387 30 mg) | TRAEs (all Grades): Rash maculo-papular, patients ([3]; APG-1387 30 mg) | TRAEs (all Grades): Tumor pain, patients ([3]; APG-1387 30 mg) | TRAEs (all Grades): Blood bilirubin increased, patients ([3]; APG-1387 45 mg) | TRAEs (all Grades): Diarrhoea, patients ([3]; APG-1387 45 mg) | TRAEs (all Grades): Eructation, patients ([3]; APG-1387 45 mg) | TRAEs (all Grades): Headache, patients ([3]; APG-1387 45 mg) | TRAEs (all Grades): Lipase increased, patients ([3]; APG-1387 45 mg)
2: # of pts discontinued treatment: Disease progression ([3]; APG-1387 20 mg) | TRAEs (all Grades): Decreased appetite, patients ([3]; APG-1387 45 mg)
(23.1%): TRAEs (all Grades): Fatigue, % of patients ([3]; APG-1387 45 mg)
